Laboratory results as given in ChEMBL document CHEMBL4814032, “Discovery of an indole-substituted furanone with tubulin polymerization inhibition activity” (Bioorg Med Chem Lett, 2021).
Calls of active or inactive are those of the source. No cut-off for these calls is given here.

How the values were obtained:
U-937 = experiment: Cytotoxicity against human U-937 cells by MTT assay; assay type: functional, cell-based
Tubulin (Homo sapiens) = Tubulin (Homo sapiens) (UniProt P68371+Q9H4B7+P0DPH7+P68366+Q13509+Q71U36+P04350+Q3ZCM7+P07437+P68363+Q9BQE3+Q6PEY2+Q13885+Q9BVA1+Q9BUF5); experiment: Inhibition of tubulin polymerization (unknown origin) at 10 uM; assay type: protein-complex assay
[1] = biological target: T1, Protein kinase C epsilon type (Homo sapiens) (UniProt Q02156); experiment: Binding affinity to PKCepsilon (unknown origin)
T1 sequence (whole entry): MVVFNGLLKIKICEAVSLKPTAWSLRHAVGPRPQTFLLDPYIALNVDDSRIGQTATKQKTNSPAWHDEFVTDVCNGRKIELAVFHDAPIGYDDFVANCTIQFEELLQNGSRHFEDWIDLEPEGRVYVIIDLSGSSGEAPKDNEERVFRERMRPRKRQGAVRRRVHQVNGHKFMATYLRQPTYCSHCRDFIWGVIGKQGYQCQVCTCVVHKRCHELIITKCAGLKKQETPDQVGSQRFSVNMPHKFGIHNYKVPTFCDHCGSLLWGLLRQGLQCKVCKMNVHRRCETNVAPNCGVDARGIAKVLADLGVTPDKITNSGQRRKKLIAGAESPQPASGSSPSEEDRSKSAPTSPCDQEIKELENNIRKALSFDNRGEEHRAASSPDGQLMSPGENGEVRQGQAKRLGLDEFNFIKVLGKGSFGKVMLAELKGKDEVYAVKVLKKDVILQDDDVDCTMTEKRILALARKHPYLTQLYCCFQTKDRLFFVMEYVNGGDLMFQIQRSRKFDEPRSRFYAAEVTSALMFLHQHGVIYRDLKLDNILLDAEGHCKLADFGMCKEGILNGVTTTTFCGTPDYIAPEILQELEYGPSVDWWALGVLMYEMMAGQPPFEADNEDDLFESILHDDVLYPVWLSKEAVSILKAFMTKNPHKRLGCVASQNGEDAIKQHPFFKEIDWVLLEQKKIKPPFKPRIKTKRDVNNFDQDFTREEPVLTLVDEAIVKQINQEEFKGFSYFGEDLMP

[2] = biological target: Vascular endothelial growth factor receptor 3 (Homo sapiens) (UniProt P35916); experiment: Binding affinity to VEGFR3 (unknown origin)
Sequence of Vascular endothelial growth factor receptor 3 (Homo sapiens) (P35916 whole entry): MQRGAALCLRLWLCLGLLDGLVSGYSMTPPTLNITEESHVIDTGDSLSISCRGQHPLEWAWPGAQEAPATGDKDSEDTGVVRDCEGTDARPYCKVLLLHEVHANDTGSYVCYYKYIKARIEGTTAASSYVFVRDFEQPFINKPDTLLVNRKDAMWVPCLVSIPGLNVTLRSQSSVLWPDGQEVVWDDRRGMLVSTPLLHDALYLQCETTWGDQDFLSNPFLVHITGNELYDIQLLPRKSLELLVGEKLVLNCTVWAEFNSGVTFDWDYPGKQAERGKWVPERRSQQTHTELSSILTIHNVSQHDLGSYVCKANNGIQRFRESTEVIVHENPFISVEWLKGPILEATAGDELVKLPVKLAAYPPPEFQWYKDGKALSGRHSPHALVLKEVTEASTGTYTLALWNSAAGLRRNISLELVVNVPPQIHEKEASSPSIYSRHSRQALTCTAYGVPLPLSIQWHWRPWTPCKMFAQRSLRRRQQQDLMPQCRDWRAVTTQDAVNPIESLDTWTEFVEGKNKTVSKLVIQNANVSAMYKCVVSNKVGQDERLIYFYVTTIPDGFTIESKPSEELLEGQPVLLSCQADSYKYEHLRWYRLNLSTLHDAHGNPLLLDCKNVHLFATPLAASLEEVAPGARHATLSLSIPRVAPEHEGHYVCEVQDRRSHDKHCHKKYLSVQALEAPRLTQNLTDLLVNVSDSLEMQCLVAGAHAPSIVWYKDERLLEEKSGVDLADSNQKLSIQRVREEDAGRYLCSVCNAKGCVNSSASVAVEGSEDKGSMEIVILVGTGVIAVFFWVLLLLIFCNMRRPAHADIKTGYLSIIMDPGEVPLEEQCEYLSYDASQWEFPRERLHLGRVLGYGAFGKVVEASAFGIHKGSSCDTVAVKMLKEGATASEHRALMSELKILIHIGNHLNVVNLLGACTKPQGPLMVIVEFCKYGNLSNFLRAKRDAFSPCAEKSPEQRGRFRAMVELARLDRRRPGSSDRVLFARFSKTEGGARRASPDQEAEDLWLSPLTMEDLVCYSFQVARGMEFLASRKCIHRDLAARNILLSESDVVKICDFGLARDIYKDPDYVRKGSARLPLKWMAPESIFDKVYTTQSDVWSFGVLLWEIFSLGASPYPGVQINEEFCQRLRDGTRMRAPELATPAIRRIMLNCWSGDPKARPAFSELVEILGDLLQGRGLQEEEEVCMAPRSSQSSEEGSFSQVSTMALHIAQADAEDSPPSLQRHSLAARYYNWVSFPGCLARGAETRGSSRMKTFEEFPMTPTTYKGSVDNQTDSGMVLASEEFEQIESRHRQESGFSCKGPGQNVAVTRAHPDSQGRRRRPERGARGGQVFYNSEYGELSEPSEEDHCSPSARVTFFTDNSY

| SMILES | IC50 (U-937) [µM] | further results |
| --- | --- | --- |
| COc1ccc(C2=C(c3cn(C)c4ccccc34)C(=O)OC2)cc1OC | 1 | – |
| COc1ccc(C2=C(c3c[nH]c4ccccc34)C(=O)OC2)cc1OC | 9 | – |
| CCCN1CC(c2ccc(OC)c(OC)c2)=C(c2c[nH]c3ccccc23)C1=O | 35 | – |
| CCCN1CC(c2ccc(OC)c(OC)c2)=C(c2cn(C(=O)OCC)c3ccccc23)C1=O | 5 | – |
| CCCN1CC(c2ccc(OC)c(OC)c2)=C(c2cn(C)c3ccccc23)C1=O | 5 | – |
| CCOC(=O)n1cc(C2=C(c3ccc(OC)c(OC)c3)COC2=O)c2ccccc21 | 0.3 | inhibition (Tubulin (Homo sapiens)): Active |
| COc1ccc(C2=C(c3cn(C)c4ccccc34)C(=O)NC2)cc1OC | – | Activity [1]: 47%; Activity [2]: 50% |
